Source: US20100152434A1, “Protein Kinase-binding Nucleosides and Associated Methods” (priority 2007, published 2010)
Where two headings read alike, the source gives them in different places.

Tests used:
NCI/ADR-RES [1] = details: NCI/ADR-RES (Ovarian Cancer panel)
UACC-62 [2] = test system: UACC-62
788-0 = assay: cells; details: Homo sapiens, 786-0
SN12C [3] = assay: cells; details: Homo sapiens
TK-10 [4] = test system: TK-10
SF-295 = assay: cells; details: Homo sapiens, SF-295
HCT-15 = assay: cells; details: Homo sapiens, HCT-15
NCI-H226 = assay: cells; details: Homo sapiens, NCI-H226
NCI/ADR-RES [5] = assay: cells; details: Homo sapiens
SNB-75 = assay: cells; details: Homo sapiens, SNB-75
UACC-62 [6] = assay: cells; details: Homo sapiens, UACC-62
MALME-3M = assay: cells; details: Homo sapiens
TK-10 [7] = assay: cells; details: Homo sapiens, TK-10
M14 = assay: cells; details: Homo sapiens, M14
MCF7 = assay: cells; details: Homo sapiens, MCF7
HT29 = assay: cells; details: Homo sapiens, HT-29
SN12C [8] = test system: SN12C
SF-268 = assay: cells; details: Homo sapiens, SF-268
DU-145 = assay: cells; details: Homo sapiens, DU-145
[9] = Log10 Concentration −4.0, Molar
[10] = Log10 Concentration −5.0, Molar
[11] = Log10 Concentration −6.0, Molar
[12] = Log10 Concentration −7.0, Molar
[13] = Log10 Concentration −8.0, Molar

## CNC(=O)NC[C@H]1O[C@@H](n2cnc3c(NC(=O)Nc4ccccc4)ncnc32)C(O[Si](C)(C)C(C)(C)C)[C@H]1O[Si](C)(C)C(C)(C)C (some centres unmarked) [Compound 25, 2′,3′-Bis-O-(tert-butyldimethylsilyl)-5-deoxy-5′-[(N-methylcarbamoyl)amino]-N^6-(N-phenylcarbamoyl)adenosine]
NCI/ADR-RES [1]
  TGI: 2.07E−5 Molar
NCI/ADR-RES [1]; Log10 Concentration −4.0 Molar
  Percent Growth: −21%
NCI/ADR-RES [1]; Log10 Concentration −5.0 Molar
  Percent Growth: 10%
NCI/ADR-RES [1]; Log10 Concentration −6.0 Molar
  Percent Growth: 103%
NCI/ADR-RES [1]; Log10 Concentration −7.0 Molar
  Percent Growth: 109%
NCI/ADR-RES [1]; Log10 Concentration −8.0 Molar
  Percent Growth: 105%
SK-MEL-2
  TGI: 5.54E−6 Molar
SK-MEL-2; [9]
  Percent Growth: −67%
SK-MEL-2; [10]
  Percent Growth: −35%
SK-MEL-2; [11]
  Percent Growth: 105%
SK-MEL-2; [12]
  Percent Growth: 110%
SK-MEL-2; [13]
  Percent Growth: 106%
HOP-92
  TGI: 5.16E−6 Molar
HOP-92; [9]
  Percent Growth: −50%
HOP-92; [10]
  Percent Growth: −25%
HOP-92; [11]
  Percent Growth: 69%
HOP-92; [12]
  Percent Growth: 80%
HOP-92; [13]
  Percent Growth: 85%
MDA-MB-231/ATCC
  TGI: 5.12E−6 Molar
MDA-MB-231/ATCC; [9]
  Percent Growth: −76%
MDA-MB-231/ATCC; [10]
  Percent Growth: −20%
MDA-MB-231/ATCC; [11]
  Percent Growth: 106%
MDA-MB-231/ATCC; [12]
  Percent Growth: 109%
MDA-MB-231/ATCC; [13]
  Percent Growth: 105%
UACC-62 [2]
  TGI: 2.36E−5 Molar
UACC-62 [2]; [9]
  Percent Growth: −39%
UACC-62 [2]; [10]
  Percent Growth: 23%
UACC-62 [2]; [11]
  Percent Growth: 90%
UACC-62 [2]; [12]
  Percent Growth: 100%
UACC-62 [2]; [13]
  Percent Growth: 102%
788-0
  GI50: 2.04 µM
  IC50: 6.75 µM
SN12C [3]
  GI50: 1.81 µM
  IC50: 6.29 µM
TK-10 [4]
  TGI: 7.26E−5 Molar
TK-10 [4]; [9]
  Percent Growth: −2%
TK-10 [4]; [10]
  Percent Growth: 14%
TK-10 [4]; [11]
  Percent Growth: 112%
TK-10 [4]; [12]
  Percent Growth: 113%
TK-10 [4]; [13]
  Percent Growth: 110%
SK-OV-3
  TGI: >1.00E−4 Molar
SK-OV-3; [9]
  Percent Growth: 5%
SK-OV-3; [10]
  Percent Growth: 39%
SK-OV-3; [11]
  Percent Growth: 107%
SK-OV-3; [12]
  Percent Growth: 113%
SK-OV-3; [13]
  Percent Growth: 106%
SF-295
  GI50: 3.84 µM
  IC50: > 100 µM
T-47D
  TGI: 1.03E−5 Molar
T-47D; [9]
  Percent Growth: −32%
T-47D; [11]
  Percent Growth: 92%
T-47D; [12]
  Percent Growth: 105%
T-47D; [13]
  Percent Growth: 101%
U251
  TGI: 1.08E−5 Molar
U251; [9]
  Percent Growth: −46%
U251; [10]
  Percent Growth: 2%
U251; [11]
  Percent Growth: 93%
U251; [12]
  Percent Growth: 102%
U251; [13]
  Percent Growth: 102%
HCT-15
  GI50: 3.62 µM
  IC50: > 100 µM
NCI-H226
  GI50: 3.1 µM
  IC50: > 100 µM
OVCAR-8
  TGI: 4.01E−5 Molar
OVCAR-8; [9]
  Percent Growth: −9%
OVCAR-8; [10]
  Percent Growth: 13%
OVCAR-8; [11]
  Percent Growth: 106%
OVCAR-8; [12]
  Percent Growth: 106%
OVCAR-8; [13]
  Percent Growth: 108%
NCI/ADR-RES [5]
  GI50: 3.72 µM
  IC50: > 100 µM
KM12
  TGI: 4.41E−6 Molar
KM12; [9]
  Percent Growth: −74%
KM12; [10]
  Percent Growth: −66%
KM12; [11]
  Percent Growth: 107%
KM12; [12]
  Percent Growth: 111%
KM12; [13]
  Percent Growth: 104%
SNB-75
  GI50: 2.43 µM
  IC50: > 100 µM
UACC-62 [6]
  GI50: 3.98 µM
  IC50: > 100 µM
MALME-3M
  GI50: 2.98 µM
  IC50: > 100 µM
TK-10 [7]
  GI50: 4.29 µM
  IC50: > 100 µM
M14
  GI50: 4.33 µM
  IC50: 93.8 µM
MCF7
  GI50: 2.69 µM
  IC50: > 100 µM
HT29
  GI50: 2.02 µM
  IC50: 8.91 µM
SN12C [8]
  TGI: 3.38E−6 Molar
SN12C [8]; [9]
  Percent Growth: −90%
SN12C [8]; [10]
  Percent Growth: −87%
SN12C [8]; [11]
  Percent Growth: 98%
SN12C [8]; [12]
  Percent Growth: 100%
SN12C [8]; [13]
  Percent Growth: 100%
SF-268
  GI50: 3.58 µM
  IC50: > 100 µM
DU-145
  GI50: 2.59 µM
  IC50: 18.7 µM
